Measurements taken from PMC9189845, “Structure–Activity Relationships of 8-Hydroxyquinoline-Derived Mannich Bases with Tertiary Amines Targeting Multidrug-Resistant Cancer” (Journal of Medicinal Chemistry, 2022).
Counter-ions that a name gives are not always drawn. Like-named read-outs stand apart in the source and are kept apart here.

Experiments:
A431-B1 cells = assay: PrestoBlue viability assay, A431-B1 (A431-ABCB1) cells
A431 cells = assay: PrestoBlue viability assay, A431 cells
[1] = cited from earlier work
MES-SA cells = assay: PrestoBlue viability assay, MES-SA cells
MES-SA/Dx5 cells = assay: PrestoBlue viability assay, MES-SA/Dx5 cells (MDR, P-gp positive); settings: for SR_TQ: selectivity ratio MES-SA vs MES-SA/Dx5, with TQ; for SR: selectivity ratio MES-SA vs MES-SA/Dx5, without TQ; for SR (MES-SA_TQ / Dx5_TQ) (values in parentheses): presence of 1 μM TQ
[2] = UV-visible spectrophotometric titrations (pKa); assay type: physicochemical; settings: water with 0.2% (v/v) DMSO, 25 °C
Description: Spectrophotometrical determination of pKa values was performed as previously reported.[20],[50] An Agilent Cary 8454 diode array spectrophotometer was used to record the UV–visible spectra in the interval 200–800 nm. The path length was between 1 and 5 cm. The spectrophotometric titrations were performed in water with 0.2% (v/v) DMSO on samples containing the compounds at 2–50 μM in the pH range from 2 to 11.5 at 25.0 ± 0.1 °C at an ionic strength of 0.10 M (KCl). Proton dissociation constants and the individual spectra of the species in the different protonation states were calculated with the computer program PSEQUAD.[62]

[3] = 72 h, read-out: IC50 / µM A431-B1, 72 h incubation
[4] = read-out: pIC50 A431-B1, SARM figure (converted)
[5] = Homo sapiens, A-431, 72 h, read-out: IC50 / µM A431, 72 h incubation
[6] = Homo sapiens, A-431, read-out: pIC50 A431, SARM figure (converted)
[7] = Homo sapiens, MES-SA, 72 h, read-out: IC50 / μM MES-SA, absence of TQ, 72 h incubation
[8] = Homo sapiens, MES-SA, read-out: IC50 / μM MES-SA (values in parentheses), presence of 1 μM P-gp inhibitor tariquidar (TQ)
[9] = Homo sapiens, MES-SA, read-out: pIC50 value MES-SA+TQ, MES-SA cells, with TQ (converted)
[10] = Homo sapiens, MES-SA, read-out: pIC50 value MES-SA, MES-SA cells, without TQ (converted)
[11] = Homo sapiens, MES-SA/Dx5, 72 h, read-out: IC50 / μM MES-SA/Dx5, absence of TQ, 72 h incubation
[12] = Homo sapiens, MES-SA/Dx5, read-out: IC50 / μM MES-SA/Dx5 (values in parentheses), presence of 1 μM P-gp inhibitor tariquidar (TQ)
[13] = Homo sapiens, MES-SA/Dx5, read-out: pIC50 value MES-SA/Dx5, MES-SA/Dx5 cells, without TQ (converted)
[14] = read-out: IC50 / μM MES-SA/Dx5 (values in parentheses), presence of 1 μM P-gp inhibitor tariquidar (TQ)
[15] = fraction of IC50 in P-gp negative vs positive cells
[16] = Homo sapiens, MES-SA/Dx5, read-out: pIC50 value MES-SA/Dx5 + TQ, MES-SA/Dx5 cells, with TQ (converted)
[17] = 0.2% DMSO, I = 0.10 M KCl, read-out: pKa (OH), experimentally determined
[18] = quinolinium nitrogen, I = 0.10 M KCl, read-out: pKa (NquinH+), experimentally determined

Compound | melting point [°C] | IC50 (A431-B1 cells; [3]) [µM] | IC50 (A431-B1 cells; [4]) [µM] | IC50 (A431 cells; [5]) [µM] | IC50 (A431 cells; [6]) [µM] | IC50 (MES-SA cells; [7]) [µM] | IC50 (MES-SA cells; [8]) [µM] | IC50 (MES-SA cells; [9]) [µM] | IC50 (MES-SA cells; [10]) [µM] | IC50 (MES-SA/Dx5 cells; [11]) [µM] | IC50 (MES-SA/Dx5 cells; [12]) [µM] | IC50 (MES-SA/Dx5 cells; [13]) [µM] | SR_TQ (MES-SA/Dx5 cells) | SR (MES-SA/Dx5 cells) | other results
Oc1cc2c(cc1O)CN(Cc1ccc3cccnc3c1O)CC2 (as salt: hydrochloride) [Compound 82, 2-((8-Hydroxy-quinolin-7-yl)methyl)-1,2,3,4-tetrahydroisoquinoline-6,7-diol Hydrochloride] | 203 to 206 | – | – | – | – | – | – | – | – | – | – | – | – | – | –
Oc1ccc(Cl)c2cccnc12 [Compound 13, reference compound] | – | – | – | – | – | 8.26 ± 0.1 | – | – | 8.32 | 5.15 ± 0.48 | – | 5.13 | – | 1.6 | pKa (OH), experimental ([1]; ref 59 (Mészáros et al., Dalton Trans. 2020)): 7.6
CN1CCN(Cc2ccc3cccnc3c2O)CC1 [Compound 34, 7-((4-Methylpiperazin-1-yl)methyl)quinolin-8-ol] | 120 to 122 | 11.3 ± 0.95 | 11.2 | 25.5 ± 1.98 | 25.7 | 16.7 ± 1.86 | 15.5 ± 0.19 | 15.5 | 16.6 | 8.67 ± 1.69 | 14.1 | 8.51 | 1.1 | 1.93 | SR (MES-SA_TQ / Dx5_TQ) (values in parentheses) (MES-SA/Dx5 cells; [15]): 1.10
CN1CCN(Cc2ccc3ccccc3c2O)CC1 [Compound 70, 2-((4-Methylpiperazin-1-yl)methyl)naphthalen-1-ol] | 79 to 81 | – | – | – | – | > 100 | – | – | – | > 100 | – | – | – | – | –
CN1CCN(Cc2cnc3ccccc3c2O)CC1 [Compound 71, 3-((4-Methylpiperazin-1-yl)methyl)quinolin-4-ol] | 164 to 166 | – | – | – | – | 94.9 ± 2.02 | – | – | 95.5 | 91 | – | 91.2 | – | 1.04 | –
Oc1c(C(c2cccnc2)N2CCCCC2)ccc2cccnc12 (stereo not shown) [Compound 92, 7-((Piperidine-1-yl)(pyridin-3-yl)methyl)quinolin-8-ol] | 178 to 179 | – | – | – | – | 13.65 ± 0.12 | – | – | 13.5 | 8.58 ± 0.38 | – | 8.51 | – | 1.59 | –

Continued, in another order:

melting point [°C] | IC50 (A431-B1 cells; [3]) [µM] | IC50 (A431-B1 cells; [4]) [µM] | IC50 (A431 cells; [5]) [µM] | IC50 (A431 cells; [6]) [µM] | Compound | IC50 (MES-SA cells; [7]) [µM] | IC50 (MES-SA cells; [8]) [µM] | IC50 (MES-SA cells; [9]) [µM] | IC50 (MES-SA cells; [10]) [µM] | IC50 (MES-SA/Dx5 cells; [11]) [µM] | IC50 (MES-SA/Dx5 cells; [12]) [µM] | IC50 (MES-SA/Dx5 cells; [13]) [µM] | SR_TQ (MES-SA/Dx5 cells) | SR (MES-SA/Dx5 cells) | other results
– | 1.62 ± 0.92 | 2.4 | 7.3 ± 0.98 | 9.77 | Oc1c(CN2CCCCC2)ccc2cccnc12 [Compound 3] | 5.21 ± 0.95 | 4.18 | 4.07 | 5.13 | 0.85 ± 0.18 | 2.69 | 0.832 | 1.56 | 6.13 | IC50 (A431-B1 cells; read-out: IC50 / µM A431-B1, 72 h incubation): 2.48 ± 0.7 µM; IC50 (A431 cells; read-out: IC50 / µM A431, 72 h incubation): 10.1 ± 2.95 µM; pKa (other; N+amH), experimental ([1]; water, 25 °C, ref 50 (Pape et al., Dalton Trans. 2018)): > 11; IC50 (MES-SA cells; read-out: IC50 / μM MES-SA (values in parentheses), presence of 1 μM P-gp inhibitor tariquidar (TQ)): 3.81 µM; IC50 (MES-SA cells; read-out: IC50 / μM MES-SA, absence of TQ, 72 h incubation): 5.46 ± 1.01 µM; IC50 (MES-SA/Dx5 cells; [14]): 1.87 µM; IC50 (MES-SA/Dx5 cells; read-out: IC50 / μM MES-SA/Dx5, absence of TQ, 72 h incubation): 0.86 ± 0.19 µM
119 to 121 | 1.54 ± 0.51 | 1.45 | 4.32 ± 0.39 | 4.27 | Oc1c(CN2CCCC2)cc(Br)c2cccnc12 [Compound 16, 5-Bromo-7-(pyrrolidin-1-ylmethyl)quinolin-8-ol] | 3.9 ± 0.87 | 4.58 ± 1.05 | 4.47 | 3.8 | 0.41 ± 0.14 | 3.14 ± 0.89 | 0.389 | 1.46 | 9.45 | –
– | 2.42 ± 0.29 | 2.4 | 6.6 ± 3.57 | 5.75 | Oc1c(CN2CCOCC2)cc(Cl)c2cccnc12 [Compound 29] | 1.52 ± 0.07 | 1.66 ± 0.02 | 1.66 | 1.51 | 0.82 ± 0.06 | 1.17 ± 0.01 | 0.813 | 1.41 | 1.86 | pKa (NquinH+), experimental ([1]; water, 25 °C, ref 15 (Pape et al., Cancers 2021)): < 2
– | 6.31 ± 2.64 | 5.75 | 7.38 ± 1.23 | 7.24 | Oc1c(CN2CCN(c3ccccc3)CC2)cc(Cl)c2cccnc12 [Compound 38] | 3.42 ± 1.17 | 3.57 ± 1.18 | 3.39 | 3.24 | 0.59 ± 0.26 | 1.87 ± 0.75 | 0.537 | 1.91 | 5.84 | IC50 (MES-SA/Dx5 cells; [16]): 1.74 µM; pKa [2, 17]: 6.21 ± 0.03; pKa ([2]; read-out: pKa (NpiperaziniumH+ closer to quinoline ring), experimentally determined): 10.1 ± 0.03; pKa [2, 18]: 1.7 ± 0.1
155 to 157 | 2.39 ± 0.02 | 2.4 | 4.74 ± 0.04 | 4.79 | Oc1c(CN2CCc3ccccc3C2)ccc2cccnc12 [Compound 51, 7-((3,4-Dihydroisoquinolin-2(1H)-yl)methyl)quinolin-8-ol] | 3.16 ± 0.41 | 2.97 ± 0.31 | 2.95 | 3.16 | 1.04 ± 0.1 | 2.16 ± 0.31 | 1.05 | 1.37 | 3.03 | IC50 (MES-SA/Dx5 cells; [16]): 2.14 µM; IC50 (MES-SA/Dx5 cells; [14]): 1.73 µM; pKa [2, 17]: 6.24 ± 0.03; pKa ([2]; piperidinium / pyrrolidinium / morpholinium N, read-out: pKa (other; N+amH alkylamine nitrogen), experimentally determined): 10.68 ± 0.03; pKa [2, 18]: 3.07 ± 0.03
156 to 159 | – | – | – | – | Oc1c(CN2CCc3ccccc3C2)cc(Br)c2cccnc12 [Compound 81, 5-Bromo-7-((3,4-dihydroisoquinolin-2(1H)-yl)methyl)quinolin-8-ol] | 2.23 ± 0.15 | 2.45 | 1.78 | 2.29 | 0.34 ± 0.05 | 1.48 | 0.363 | 1.82 | 6.23 | SR (MES-SA / MES-SA/Dx5) (MES-SA/Dx5 cells; fraction of IC50 in P-gp negative vs positive cells, absence of TQ): 6.50; SR (MES-SA_TQ / Dx5_TQ) (values in parentheses) (MES-SA/Dx5 cells; [15]): 1.66
